Measured values reported in patent US6566389B1, “Therapeutic uses of melatonin” (Neurim Pharmaceuticals (1991) Ltd., priority 1999, dated 2003).
Marks after values point to notes of the source that are not given here.

Assays:
[1] = system: patients with tardive dyskinesia on long-term neuroleptic treatment; assay: Randomized, double blind, crossover trial of melatonin on tardive dyskinesia severity, Abnormal Involuntary Movements Scale (AIMS); format: in vivo, human
Method: The effect of melatonin on tardive dyskinesis was determined on a trial population of 22 patients, of whom 6 were schizoaffective and 16 were paranoid schizophrenics. All patients, who had been receiving long-term neuroleptic treatment, were diagnosed according to DSM IV. They consisted of 11 men and 11 women, age 39±15 years, age range 17-61 years, of whom 19 completed the trial and are included in the results. In a randomized, double blind, crossover manner, subjects were given daily either 2×5 mg melatonin in a controlled-release formulation (Circadin™, Neurim Pharmaceuticals, Israel), two hours before bedtime, or a placebo of identical appearance, for a period of six weeks, with a four week placebo wash-out between two treatment periods. […] During the last week of each treatment period, TD severity was assessed using the Abnormal Involuntary Movements Scale (AIMS) and comparisons were made between placebo or melatonin treatments, and baseline.

[2] = system: pinealectomized rats treated with haloperidol; conditions: 4 mg, i.p., within one hour; cited from earlier work

SMILES: COc1ccc2[nH]cc(CCNC(C)=O)c2c1 [melatonin]
- T-test (t21), AIMS sub-scale 5 ([1]; arms, hands, baseline/administration difference, placebo vs. melatonin): −1.78
- p of T-test, AIMS sub-scale 5 ([1]; arms, hands, placebo vs. melatonin): 0.09
- decrease, ie. improvement (AIMS), after administration ([1]; change from baseline after melatonin, placebo −1±1.3): −3±2.1
- T-test (t21), AIMS sub-scale 1 ([1]; facial and oral movements, baseline/administration difference, placebo vs. melatonin): −1
- p of T-test, AIMS sub-scale 1 ([1]; facial and oral movements, placebo vs. melatonin): 0.33
- p (MANOVA) of decrease after melatonin compared with placebo ([1]; highly significant): < 0.0001
- T-test (t21), AIMS sub-scale 9 ([1]; implication due to abnormal movements, baseline/administration difference, placebo vs. melatonin): −1.14
- p of T-test, AIMS sub-scale 9 ([1]; implication due to abnormal movements, placebo vs. melatonin): 0.27
- T-test (t21), AIMS sub-scale 3 ([1]; jaw, baseline/administration difference, placebo vs. melatonin): −1.14
- p of T-test, AIMS sub-scale 3 ([1]; jaw, placebo vs. melatonin): 0.27
- T-test (t21), AIMS sub-scale 6 ([1]; legs, knees, baseline/administration difference, placebo vs. melatonin): −2.81
- p of T-test, AIMS sub-scale 6 ([1]; legs, knees, placebo vs. melatonin, significant outcome): 0.01*
- T-test (t21), AIMS sub-scale 2 ([1]; lips and perioral area, baseline/administration difference, placebo vs. melatonin): −3.92
- p of T-test, AIMS sub-scale 2 ([1]; lips and perioral area, placebo vs. melatonin, significant outcome): <0.001*
- T-test (t21), AIMS sub-scale 7 ([1]; neck, shoulder, baseline/administration difference, placebo vs. melatonin): −2.49
- p of T-test, AIMS sub-scale 7 ([1]; neck, shoulder, placebo vs. melatonin, significant outcome): 0.02*
- T-test (t21), AIMS sub-scale 10 ([1]; patient's awareness, baseline/administration difference, placebo vs. melatonin): delta = 0
- T-test (t21), AIMS sub-scale 11 ([1]; problem with teeth, baseline/administration difference, placebo vs. melatonin): delta = 0
- T-test (t21), AIMS sub-scale 8 ([1]; severity of abnormal movements, baseline/administration difference, placebo vs. melatonin): −1.82
- p of T-test, AIMS sub-scale 8 ([1]; severity of abnormal movements, placebo vs. melatonin): 0.08
- T-test (t21), AIMS sub-scale 4 ([1]; tongue, baseline/administration difference, placebo vs. melatonin): −0.81
- p of T-test, AIMS sub-scale 4 ([1]; tongue, placebo vs. melatonin): 0.43
- severity of movements after melatonin [2]: non-significant reduction of the severity of movements
